In US7820649B2, “Quinazolinone and isoquinolinone acetamide derivatives” (N.V. Organon, priority 2006, dated 2010):

Key:
human V3 receptor = molecular target: T1, human V3 receptor (Homo sapiens, UniProt P47901); experiment: [3H]AVP binding to CHO cells stably expressing the human V3 receptor; conditions: [3H]AVP 2.5x10^-9 mol/L
T1 construct: expressed in transfected cells
T1 sequence (P47901 1-424): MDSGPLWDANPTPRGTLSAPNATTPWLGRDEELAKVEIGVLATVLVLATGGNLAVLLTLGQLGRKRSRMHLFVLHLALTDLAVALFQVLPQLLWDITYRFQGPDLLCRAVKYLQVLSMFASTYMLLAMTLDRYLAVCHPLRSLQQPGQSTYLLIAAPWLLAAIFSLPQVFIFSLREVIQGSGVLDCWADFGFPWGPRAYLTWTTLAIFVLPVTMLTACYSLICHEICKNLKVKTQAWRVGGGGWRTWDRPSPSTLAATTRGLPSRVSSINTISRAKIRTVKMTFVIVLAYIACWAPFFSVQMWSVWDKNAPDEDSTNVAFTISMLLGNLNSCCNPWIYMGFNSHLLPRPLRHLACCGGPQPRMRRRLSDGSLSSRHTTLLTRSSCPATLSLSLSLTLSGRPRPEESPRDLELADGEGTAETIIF
Experimental: Chinese Hamster Ovary (CHO) cells stably expressing the human V3 receptor were incubated to equilibrium with the test compound (at a final assay concentration of 10^−10 mol.L^−1 to 10^−5 mol.L^−1) and [^3H]AVP (at a final assay concentration of 2.5×10^−9 mol.L^−1). […] After washing with ice-cold phosphate buffered saline (PBS), scintillation fluid was added and the plates counted on a Topcount NXT apparatus.
A sigmoidal dose response curve (non-linear regression, variable slope) was plotted as concentration of test compound (mol.L^−1) against percentage specific binding of [^3H]AVP and a Ki value was calculated. Each determination was carried out in triplicate and repeated on at least 3 separate occasions

V3 receptor = molecular target: T2, V3 receptor (Rattus norvegicus, UniProt P48974); experiment: Block of AVP-induced ACTH release from isolated rat anterior pituitary corticotrophs; type: cell-based; conditions: ACTH release after 3x10^-9 mol/L AVP for 120 minutes, ELISA; read-out: V3 receptor antagonism in isolated rat anterior pituitary cells
T2 construct: Anterior pituitary corticotrophs were prepared from adult female Sprague-Dawley rats; endogenous in cells; host or cells: primary anterior pituitary corticotrophs from adult female Sprague-Dawley rats
T2 sequence (P48974 1-425): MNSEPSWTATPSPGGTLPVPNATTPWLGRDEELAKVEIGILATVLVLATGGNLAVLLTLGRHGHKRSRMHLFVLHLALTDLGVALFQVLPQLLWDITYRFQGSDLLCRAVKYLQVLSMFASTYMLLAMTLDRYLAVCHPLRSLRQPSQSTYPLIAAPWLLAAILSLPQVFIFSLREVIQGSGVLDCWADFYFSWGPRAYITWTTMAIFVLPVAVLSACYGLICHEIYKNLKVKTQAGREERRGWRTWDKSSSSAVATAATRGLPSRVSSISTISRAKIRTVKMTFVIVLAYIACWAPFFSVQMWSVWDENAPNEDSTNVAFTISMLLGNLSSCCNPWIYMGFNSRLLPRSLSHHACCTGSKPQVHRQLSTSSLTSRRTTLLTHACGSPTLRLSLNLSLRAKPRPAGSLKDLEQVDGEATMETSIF
Experimental: The ability of compounds of the invention to act as V3 antagonists in a physiologically relevant system was determined by measuring their ability to block the release of adrenocorticotropic hormone (ACTH) from anterior pituitary corticotrophs in response to treatment with arginine vasopressin (AVP).
Anterior pituitary corticotrophs were prepared from adult female Sprague-Dawley rats and seeded into 48 well plates. The cells were cultured for 4 days prior to exposure to compound. Test compounds were prepared at […] in 100% DMSO. Cells were exposed to a dose response of test compounds for 20 minutes (10^−8 mol.L^−1-10^−5 mol.L^−1). The final concentration of DMSO in the assay was kept constant at 0.3%. The cells were then exposed to 3×10^−9 mol.L^−1 AVP for 120 minutes. Supernatants were harvested and stored at −20° C. ACTH levels were subsequently measured by ELISA following the manufacturer's instructions (Immunodiagnostic systems, UK (Cat No. DX-SDX018)). Each treatment was carried out in quadruplicate and a mean value obtained for the amount of ACTH released. The degree of antagonism was then calculated as a percentage of the amount of ACTH released by agonist alone after adjustment for basal levels of ACTH. A pIC50 was calculated by fitting a Sigmoidal dose response (variable slope) curve with a non-linear (fit) to the data using the software package GraphPad prism. […]

| Compound | Ki (human V3 receptor) | IC50 (V3 receptor) |
| --- | --- | --- |
| CC(C)N1CCCN(c2ccc3nc(-c4cccc(Cl)c4)n(CC(=O)N(C)C(C)C)c(=O)c3c2)CC1 [Example 9u, 2-[2-(3-Chlorophenyl)-6-(4-isopropylperhydro-1,4-diazepin-1-yl)-4-oxo-4H-quinazolin-3-yl]-N-isopropyl-N-methylacetamide] | 10 to 100 nM |  |
| COc1cccc(-c2nc3ccc(N4CCCN(C(C)C)CC4)cc3c(=O)n2CC(=O)NC(C)C)c1 [Example 4b, N-Isopropyl-2-[6-(4-isopropylperhydro-1,4-diazepin-1-yl)-2-(3-methoxyphenyl)-4-oxo-4H-quinazolin-3-yl]acetamide] |  | 10 to 100 nM |
| COCC(C)NC(=O)Cn1c(-c2ccc(F)c(OC)c2)nc2ccc(N3CCN4CCC3CC4)cc2c1=O (centres unmarked) [Example 9Ah, 2-[6-(1,4-Diazabicyclo[3.2.2]non-4-yl)-2-(4-fluoro-3-methoxyphenyl)-4-oxo-4H-quinazolin-3-yl]-N-(2-methoxy-1-methylethyl)acetamide] | 10 to 100 nM |  |
| COc1cccc(-c2nc3ccc(N4CCCC(CN(C)C)C4)cc3c(=O)n2CC(=O)NC(C)C)c1 (centres unmarked) [Example 3c, 2-[6-(3-Dimethylaminomethyl-piperidin-1-yl)-2-(3-methoxyphenyl)-4-oxo-4H-quinazolin-3-yl]-N-isopropylacetamide] | 10 to 100 nM |  |
| COc1cccc(-c2nc3ccc(N4CCNCC4)cc3c(=O)n2CC(=O)NC(C)C)c1 [Example 2b, N-Isopropyl-2-[2-(3-methoxyphenyl)-4-oxo-6-piperazin-1-yl-4H-quinazolin-3-yl]acetamide] | 10 to 100 nM |  |
| COc1cccc(-c2nc3ccc(N4CCCN(CC(F)(F)F)CC4)cc3c(=O)n2CC(=O)NC(C)C)c1 [Example 4c, N-Isopropyl-2-{2-(3-methoxyphenyl)-4-oxo-6-[4-(2,2,2-trifluoroethyl)Perhydro-1,4-diazepin-1-yl]-4H-quinazolin-3-yl}acetamide] | 100 to 1000 nM |  |
| CC(C)(C)NC(=O)Cn1c(C2CCCC2)nc2ccc(N3CCCNCC3)cc2c1=O [Example 7a] | 10 to 100 nM |  |

Other lines, results leading:

| Ki (human V3 receptor) | IC50 (V3 receptor) | Compound |
| --- | --- | --- |
| < 10 nM |  | COCCN1CCCN(c2ccc3nc(-c4cccc(OC)c4)n(CC(=O)NC(C)C)c(=O)c3c2)CC1 [Example 4d, N-Isopropyl-2-[6-[4-(2-methoxyethyl)perhydro-1,4-diazepin-1-yl]-2-(3-methoxyphenyl)-4-oxo-4H-quinazolin-3-yl]acetamide] |
| < 10 nM |  | CC(C)NC(=O)Cn1c(-c2ccc(F)c(Cl)c2)nc2ccc(N3CCCN(CC(C)(C)C)CC3)cc2c1=O [Example 5Ac, 2-{2-(3-Chloro-4-fluorophenyl)-6-[4-(2,2-dimethylpropyl)perhydro-1,4-diazepin-1-yl]-4-oxo-4H-quinazolin-3-yl}-N-isopropylacetamide] |
| < 10 nM |  | CC(C)NC(=O)Cn1c(-c2cccc(Cl)c2)nc2ccc(N3CCCNCC3)cc2c1=O [Example 1b, 2-[2-(3-Chlorophenyl)-4-oxo-6-perhydro-1,4-diazepin-1-yl-4H-quinazolin-3-yl]-N-isopropylacetamide] |
| < 10 nM |  | CC(C)NC(=O)Cn1c(-c2cc(Cl)cc(OC(F)(F)F)c2)nc2ccc(N3CCCN(C(C)C)CC3)cc2c1=O [Example 6w, 2-[2-(3-Chloro-5-trifluoromethoxyphenyl)-6-(4-isopropylperhydro-1,4-diazepin-1-yl)-4-oxo-4H-quinazolin-3-yl]-N-isopropylacetamide] |
| < 10 nM |  | CC(C)NC(=O)Cn1c(-c2ccc(F)c(Cl)c2)nc2ccc(N3CCN(C)CC(C)(C)C3)cc2c1=O [Example 5s, 2-[2-(3-Chloro-4-fluorophenyl)-4-oxo-6-(4,6,6-trimethylperhydro-1,4-diazepin-1-yl)-4H-quinazolin-3-yl]-N-isopropylacetamide] |
| < 10 nM |  | COc1cccc(-c2nc3ccc(N4CCC[C@H](CN5CCCCC5)C4)cc3c(=O)n2CC(=O)NC(C)C)c1 [Example 3f, N-Isopropyl-2-[2-(3-methoxyphenyl)-4-oxo-6-((R)-3-piperidin-1-ylmethylpiperidin-1-yl)-4H-quinazolin-3-yl]acetamide] |
| < 10 nM |  | CCN1CCCN(c2ccc3nc(-c4ccc(F)c(OC)c4)n(CC(=O)NC(C)(C)C(F)(F)F)c(=O)c3c2)CC1 [Example 9h, 2-[6-(4-Ethylperhydro-1,4-diazepin-1-yl)-2-(4-fluoro-3-methoxyphenyl)-4-oxo-4H-quinazolin-3-yl]-N-(2,212-trifluoro-1,1-dimethylethyl)acetamide] |
